The values below come from PubChem BioAssay (NCI).

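Growth conditions: 96-well plates. Treatment: test compound, 48 hours, 5 concentrations. Analysis: linear interpolation between bracketing concentrations; unreached endpoints set to highest concentration. At the TGI there is no net growth.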 Where a SMILES comes first, the peptide text is derived from it. [ ]: non-standard residue; d: D form. The star is where a group is joined. ξ: configuration not given here. ξF = NC(Cc1ccccc1)C(=O)O; Cbz = O=C(OCc1ccccc1)*; Aib = CC(C)(N)C(=O)O

Among the test systems are OVCAR-5 ovarian; LOX IMVI melanoma; MDA-N; SR leukemia; MOLT-4 leukemia; MDA-MB-435; IGROV1 ovarian; SN12C renal; NCI-H226 lung; MDA-MB-231 breast.
Test in all cases: NCI tumour cell line growth inhibition, 48 h

`CC(C)(CO)CNc1cc(=O)[nH]c(N)n1`: the TGI in the assay on OVCAR-5 ovarian, in the assay with LOX IMVI melanoma, in the assay on MDA-N, in the assay on SR leukemia, with MOLT-4 leukemia and in the assay on MDA-MB-435 was greater than 100 µM each time. For the same compound, the TGI in the assay on IGROV1 ovarian, with SN12C renal, in the assay with NCI-H226 lung and with MDA-MB-231 breast was greater than 100 µM each time.

On to `OC(C1CCC=NN1C(O)(C(F)(F)F)C(F)(F)F)(C(F)(F)F)C(F)(F)F` (stereo not drawn), for which the TGI in the assay on OVCAR-5 ovarian, in the assay on LOX IMVI melanoma, in the assay on MDA-N, in the assay on SR leukemia, in the assay with MOLT-4 leukemia and in the assay with MDA-MB-435 was greater than 10 µM in each case. Also, the TGI in the assay on IGROV1 ovarian, in the assay on SN12C renal, in the assay with NCI-H226 lung and in the assay on MDA-MB-231 breast was greater than 10 µM each time.

For the compound `CCN1CC(C)Cn2c(=O)[nH]c3cc(Br)cc1c32` (stereo not drawn), the TGI in the assay with OVCAR-5 ovarian was greater than 100 µM; in the assay with LOX IMVI melanoma, greater than 100 µM; in the assay on MDA-N, 51.8 µM; with MOLT-4 leukemia, 81.9 µM; in the assay with MDA-MB-435, 9.74 µM; in the assay with IGROV1 ovarian it was greater than 100 µM. Moreover, the TGI in the assay on SN12C renal, in the assay with NCI-H226 lung and in the assay with MDA-MB-231 breast was greater than 100 µM throughout.

In the case of `Cc1c(-c2c(C)c3ccccc3n2S(=O)(=O)c2ccccc2)n(S(=O)(=O)c2ccccc2)c2ccccc12`, the TGI in the assay on OVCAR-5 ovarian, in the assay with LOX IMVI melanoma, in the assay with MDA-N, in the assay with SR leukemia, in the assay on MOLT-4 leukemia and in the assay on MDA-MB-435 was greater than 100 µM in each case. Further, the TGI with IGROV1 ovarian, in the assay with SN12C renal, in the assay on NCI-H226 lung and in the assay on MDA-MB-231 breast was greater than 100 µM in each case.

In the case of `COC(=O)CCCc1ccc2c(c1)CC1(C2)Cc2cc3c(cc2C1)CCCC3`, the TGI with OVCAR-5 ovarian is greater than 100 µM; with LOX IMVI melanoma, 72.1 µM; with MDA-N, 42.3 µM; in the assay with SR leukemia, 0.713 µM; in the assay on MOLT-4 leukemia it was 38.9 µM; in the assay on MDA-MB-435 it was 40.3 µM. The TGI in the assay on IGROV1 ovarian, in the assay with SN12C renal, with NCI-H226 lung and in the assay on MDA-MB-231 breast was greater than 100 µM throughout.

For the compound `CC(C)(NC(=O)OCc1ccccc1)C(=O)NC(Cc1ccccc1)C(=O)O` (stereo not drawn) (Cbz-[Aib]-[ξF]-OH), the TGI in the assay with OVCAR-5 ovarian, with LOX IMVI melanoma, in the assay on MDA-N, with MOLT-4 leukemia, in the assay on MDA-MB-435 and in the assay on IGROV1 ovarian was greater than 100 µM throughout. The TGI with SN12C renal, in the assay with NCI-H226 lung and with MDA-MB-231 breast was greater than 100 µM throughout.

In the case of `NCCC(N)C(=O)O` (stereo not drawn), the TGI in the assay with OVCAR-5 ovarian, in the assay with LOX IMVI melanoma, in the assay on MDA-N, in the assay with SR leukemia, in the assay on MOLT-4 leukemia and in the assay on MDA-MB-435 was greater than 100 µM in each case. For the same compound, the TGI in the assay on IGROV1 ovarian, with SN12C renal, in the assay on NCI-H226 lung and in the assay with MDA-MB-231 breast was greater than 100 µM each time.

For the compound `O=C(Nc1ccccc1)O/N=C(/CBr)c1ccccc1`, the TGI with OVCAR-5 ovarian is 36.1 µM; with LOX IMVI melanoma it was 16.3 µM; with MDA-N it was 24.2 µM; with SR leukemia, 44.2 µM; in the assay with MOLT-4 leukemia, greater than 100 µM; with MDA-MB-435, 21.5 µM. The TGI in the assay with IGROV1 ovarian is 36.9 µM; in the assay on SN12C renal, 25 µM; in the assay on NCI-H226 lung, 60.8 µM; in the assay with MDA-MB-231 breast, 29.3 µM.

As for `Cc1ccc(S(=O)(=O)N/C(=C\C=C\c2ccccc2)C(=O)C(C)(C)C)cc1`, the TGI in the assay on OVCAR-5 ovarian, in the assay with LOX IMVI melanoma, in the assay on MDA-N, with SR leukemia, in the assay with MOLT-4 leukemia and with MDA-MB-435 was greater than 100 µM each time. In addition, the TGI in the assay on IGROV1 ovarian, in the assay on SN12C renal, in the assay with NCI-H226 lung and with MDA-MB-231 breast was greater than 100 µM each time.

Regarding `CC(C)Oc1c(-c2c(OC(C)C)c(=O)c2=O)c(=O)c1=O`, the TGI with OVCAR-5 ovarian was greater than 100 µM; with LOX IMVI melanoma it was greater than 47.1 µM; in the assay with MDA-N, greater than 38.6 µM; with SR leukemia it was greater than 100 µM; in the assay with MOLT-4 leukemia it was greater than 68.1 µM; in the assay on MDA-MB-435, greater than 41.6 µM. The TGI is greater than 51.5 µM with IGROV1 ovarian, greater than 62.7 µM in the assay on SN12C renal, greater than 100 µM in the assay on NCI-H226 lung and greater than 57.2 µM in the assay with MDA-MB-231 breast.

With `CCNC(=O)Nc1cccc(C)n1`, the TGI in the assay on OVCAR-5 ovarian, in the assay on MDA-N, in the assay with SR leukemia, with MOLT-4 leukemia, in the assay with MDA-MB-435 and with IGROV1 ovarian was greater than 100 µM each time. For the same compound, the TGI in the assay with SN12C renal, with NCI-H226 lung and in the assay on MDA-MB-231 breast was greater than 100 µM each time.

As to `Cc1cc2c(cc1Cl)Sc1nnc(Nc3ccccc3)n1S2(=O)=O`, the TGI is greater than 100 µM in the assay with OVCAR-5 ovarian; 18.7 µM with LOX IMVI melanoma; 31.2 µM in the assay with MDA-N; 13.6 µM with SR leukemia; 13.5 µM in the assay on MOLT-4 leukemia; 54.8 µM in the assay on MDA-MB-435. Moreover, the figures for the TGI in the assay with IGROV1 ovarian, in the assay with NCI-H226 lung and in the assay on MDA-MB-231 breast were 54.6 µM, 10.7 µM and 49.9 µM, respectively.

`CCN(CC)Cc1nc2sc3c(c2c(=O)n1-c1ccccc1)CCCC3`: the TGI is 63.1 µM in the assay on OVCAR-5 ovarian; 28.7 µM in the assay on LOX IMVI melanoma; 58 µM in the assay with MDA-N; greater than 100 µM in the assay with SR leukemia; 56.7 µM with MOLT-4 leukemia; 39 µM in the assay on IGROV1 ovarian. Further, the TGI with SN12C renal was 37.8 µM; in the assay with NCI-H226 lung, 33 µM; with MDA-MB-231 breast, 30.4 µM.

Consider `c1ccc2c(-c3cnc(-c4c[nH]c5ccccc45)cn3)c[nH]c2c1`, for which the TGI in the assay on OVCAR-5 ovarian is greater than 100 µM; in the assay with LOX IMVI melanoma, 94.2 µM; in the assay with MDA-N it was 50.3 µM; with SR leukemia, greater than 100 µM; with MDA-MB-435, 78.5 µM; in the assay with IGROV1 ovarian, greater than 100 µM. Further, the TGI in the assay on SN12C renal and in the assay with MDA-MB-231 breast was greater than 100 µM each time.
